This assay relates to S-opsin, M-opsin, L-opsin. Put plainly: Quantitative PCR of S-opsin, M-opsin, L-opsin after maturation culture in serum-free medium. The class given is cell-based, human. To be noted: BMP4 (0-1.35 nM) added in combination with T3 (0-8 nM) in serum-free DMEM/F12 after about day 190, not less than 30 days. Here is the method: By a method similar to the methods described in Example 1 and Example 3, a cell aggregate containing a retinal tissue in a differentiation stage matured to the level that Muller cell was observed was prepared and culture was performed, in the serum-containing medium used, up to about day 190 to give a retinal tissue in a differentiation stage matured to the level that Muller cell was observed. Thereafter, by a method similar to the methods described in Example 11 and 12, further maturation was performed. That is, 0-1.35 nM BMP4 and 0-8 nM T3 were added to a medium obtained by adding 1% N2 supplement and 100 μM taurine but not adding 10% fetal calf serum to DMEM/F12 medium containing glutamic acid as a component, and culture was performed for not less than 30 days from the start of culture for further maturation. A cell aggregate containing a retinal tissue was recovered, quantitatively PCR was performed according to a conventional method, and the expression levels of S-opsin, M-opsin, L-opsin were confirmed. As a result, irrespective of the presence or absence of BMP4, the expression of S-opsin was promoted when T3 was absent.

Take “BMP4: BMP protein; BMP signal transduction pathway agonist used as dorsalization signal transmitter”: the “expression of L and M-opsin” value is on record as “promoted”.

(Values after patent publication US20200277571A1, “METHOD FOR AMPLIFYING CONE PHOTORECEPTORS OR ROD PHOTORECEPTORS USING DORSALIZATION SIGNAL TRANSMITTER OR VENTRALIZATION SIGNAL TRANSMITTER” (RIKEN, priority 2017, published 2020).)
